Drawing on US12581252B2, “Substituted pyrrolo[3,4-b]pyridines as PI3K-α inhibitors” (Relay Therapeutics, Inc., priority 2020, dated 2026), this text covers IC50 for 60 molecules.

SMILES strings stand for the structures.

The target in this assay is H1047R PIK3CA enzyme (Homo sapiens, UniProt P42336, H1047R). In words: ADP-Glo Biochemical PIK3CA Kinase Assay. On the technique in general: ADP-Glo turns the ADP formed in a reaction into a luminescent signal.
Chain of H1047R PIK3CA enzyme (P42336 whole entry H1047R): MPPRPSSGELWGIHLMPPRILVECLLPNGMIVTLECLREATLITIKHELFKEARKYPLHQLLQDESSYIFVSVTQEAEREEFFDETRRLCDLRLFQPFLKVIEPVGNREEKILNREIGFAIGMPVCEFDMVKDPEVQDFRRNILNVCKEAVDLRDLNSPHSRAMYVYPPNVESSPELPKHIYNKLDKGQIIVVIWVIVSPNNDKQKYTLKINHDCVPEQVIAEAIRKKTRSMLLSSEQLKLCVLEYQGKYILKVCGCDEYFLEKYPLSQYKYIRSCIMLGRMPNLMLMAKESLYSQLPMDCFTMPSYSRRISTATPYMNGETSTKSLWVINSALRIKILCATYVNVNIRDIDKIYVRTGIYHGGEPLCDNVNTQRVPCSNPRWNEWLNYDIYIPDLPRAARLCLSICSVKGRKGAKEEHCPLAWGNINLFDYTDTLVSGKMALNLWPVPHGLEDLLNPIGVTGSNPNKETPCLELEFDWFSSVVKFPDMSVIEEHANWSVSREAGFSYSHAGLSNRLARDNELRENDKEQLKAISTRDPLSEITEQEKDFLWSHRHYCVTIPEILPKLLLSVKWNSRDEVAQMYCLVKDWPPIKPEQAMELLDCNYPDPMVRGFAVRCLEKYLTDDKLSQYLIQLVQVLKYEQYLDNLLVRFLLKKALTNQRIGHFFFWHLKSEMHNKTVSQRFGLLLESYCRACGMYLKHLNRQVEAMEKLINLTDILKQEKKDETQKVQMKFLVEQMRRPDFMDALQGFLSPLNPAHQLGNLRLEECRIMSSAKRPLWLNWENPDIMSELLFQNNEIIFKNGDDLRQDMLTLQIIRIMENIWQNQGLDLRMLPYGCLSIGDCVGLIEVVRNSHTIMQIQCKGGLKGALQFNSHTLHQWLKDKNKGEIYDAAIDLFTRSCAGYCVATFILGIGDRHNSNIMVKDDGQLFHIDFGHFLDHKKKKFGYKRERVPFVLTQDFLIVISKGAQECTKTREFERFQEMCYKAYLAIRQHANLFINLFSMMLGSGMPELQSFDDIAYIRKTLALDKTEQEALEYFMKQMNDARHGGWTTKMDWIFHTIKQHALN
Chain of H1047R PIK3CA enzyme (P27986 whole entry partner): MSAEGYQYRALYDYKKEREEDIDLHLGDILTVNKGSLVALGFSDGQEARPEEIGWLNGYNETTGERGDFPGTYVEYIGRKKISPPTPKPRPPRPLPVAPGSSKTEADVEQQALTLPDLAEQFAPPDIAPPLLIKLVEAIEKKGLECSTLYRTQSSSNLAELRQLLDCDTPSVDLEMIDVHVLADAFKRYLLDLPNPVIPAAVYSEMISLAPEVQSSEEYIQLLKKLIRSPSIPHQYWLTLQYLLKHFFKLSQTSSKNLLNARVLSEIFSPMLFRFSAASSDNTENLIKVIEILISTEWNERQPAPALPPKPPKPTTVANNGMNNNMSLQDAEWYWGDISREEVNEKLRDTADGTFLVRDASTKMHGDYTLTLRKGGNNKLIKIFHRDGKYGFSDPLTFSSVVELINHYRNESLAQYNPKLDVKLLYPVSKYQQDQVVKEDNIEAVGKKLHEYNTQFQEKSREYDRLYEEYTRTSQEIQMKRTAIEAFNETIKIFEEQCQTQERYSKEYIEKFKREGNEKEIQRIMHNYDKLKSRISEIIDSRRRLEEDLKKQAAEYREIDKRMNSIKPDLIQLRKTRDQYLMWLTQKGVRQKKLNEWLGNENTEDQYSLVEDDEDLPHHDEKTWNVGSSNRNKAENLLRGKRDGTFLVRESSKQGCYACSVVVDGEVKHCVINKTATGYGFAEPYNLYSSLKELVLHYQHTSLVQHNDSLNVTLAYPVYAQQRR
What is called IC50 is the point on the concentration scale where inhibition reaches its midpoint. Low values mean greater potency in that assay, high ones weaker potency in that assay. In the case of `O=C1NC(c2cc(F)ccc2Cl)c2c(NC(=O)n3ccc4ccccc43)cc(Br)cc21` (stereo not drawn) [Compound I-1318], the IC50 is at most 0.1 µM.

Take `O=C1NC(c2cc(F)ccc2Cl)c2c(NC(=O)c3cc(F)cc4oc(=O)[nH]c34)cc(Br)cc21` (stereo not drawn) [Compound I-1319]: the IC50 lay within 1 to 10 µM.

The molecule `O=C1NC(c2cc(F)ccc2Cl)c2c(NC(=O)C3CCC(C(F)(F)F)CC3)cc(Br)cc21` (stereo not drawn) [Compound I-1324] came in with a half-inhibitory concentration (IC50) of 1 to 10 µM.

`O=C(Nc1cc(-c2cn3ccnc3cn2)cc2c1[C@@H](c1cc(F)ccc1Cl)NC2=O)c1cc(F)cc(C(F)(F)F)c1` [Compound I-1329] yielded an IC50 of 1 to 10 µM.

Molecule `O=C(Nc1cc(-c2cn3ccnc3cn2)cc2c1[C@H](c1cc(F)ccc1Cl)NC2=O)c1cc(F)cc(C(F)(F)F)c1` [Compound I-1330] returned an IC50 of at most 0.1 µM.

In turn, `O=C(Nc1cc(-c2ccc3nccn3n2)cc2c1[C@@H](c1cc(F)ccc1Cl)NC2=O)c1cc(F)cc(C(F)(F)F)c1` [Compound I-1331] showed an IC50 of 1 to 10 µM.

The molecule `O=C(Nc1cc(-c2ccc3nccn3n2)cc2c1[C@H](c1cc(F)ccc1Cl)NC2=O)c1cc(F)cc(C(F)(F)F)c1` [Compound I-1332] registered an IC50 of at most 0.1 µM.

`N#C[C@H]1C[C@@H](Oc2cc(NC(=O)c3cc(F)cc(C(F)(F)F)c3)c3c(c2)C(=O)N[C@@H]3c2cc(F)ccc2Cl)C1` [Compound I-1333] had an IC50 of 1 to 10 µM.

Turning to `N#C[C@H]1C[C@@H](Oc2cc(NC(=O)c3cc(F)cc(C(F)(F)F)c3)c3c(c2)C(=O)N[C@H]3c2cc(F)ccc2Cl)C1` [Compound I-1334], the 50% inhibitory concentration (IC50) was at most 0.1 µM.

As for `O=C(Nc1cc(-c2cn3ncnc3cn2)cc2c1C(c1cc(F)ccc1Cl)NC2=O)c1cc(F)cc(C(F)(F)F)c1` (stereo not drawn) [Compound I-1335], the IC50 is at most 0.1 µM.

Turning to `CS(=O)(=O)Cn1cc(-c2cc(NC(=O)c3cc(F)cc(C(F)(F)F)c3)c3c(c2)C(=O)NC3c2cc(F)ccc2Cl)cn1` (stereo not drawn) [Compound I-1336], the IC50 is at most 0.1 µM.

As to `O=C(Nc1cc(C(O)C2(O)COC2)cc2c1C(c1cc(F)ccc1Cl)NC2=O)c1cc(F)cc(C(F)(F)F)c1` (stereo not drawn) [Compound I-1337], the IC50 lay within 0.1 to 0.5 µM.

Molecule `O=C(Nc1cc(OCC2(O)COC2)cc2c1C(c1cc(F)ccc1Cl)NC2=O)c1cc(F)cc(C(F)(F)F)c1` (stereo not drawn) [Compound I-1338] came in with an IC50 of 0.1 to 0.5 µM.

As to `O=C(Nc1cc(CC2(CO)COC2)cc2c1C(c1cc(F)ccc1Cl)NC2=O)c1cc(F)cc(C(F)(F)F)c1` (stereo not drawn) [Compound I-1339], the IC50 is at most 0.1 µM.

`O=C(Nc1cc(-c2ccnn2CCO)cc2c1C(c1cc(F)ccc1Cl)NC2=O)c1cc(F)cc(C(F)(F)F)c1` (stereo not drawn) [Compound I-1340]: the IC50 is at most 0.1 µM.

`O=C(Nc1cc(OCC(O)CO)cc2c1C(c1cc(F)ccc1Cl)NC2=O)c1cc(F)cc(C(F)(F)F)c1` (stereo not drawn) [Compound I-1341] displayed an IC50 of at most 0.1 µM.

On to `O=C(Nc1cc(-c2ccc3ncnn3c2)cc2c1C(c1cc(F)ccc1Cl)N(CO)C2=O)c1cc(F)cc(C(F)(F)F)c1` (stereo not drawn) [Compound I-1342], for which the IC50 is 0.1 to 0.5 µM.

For `CC(C)[C@H](N)C(=O)N1C(=O)c2cc(-c3ccc4ncnn4c3)cc(NC(=O)c3cc(F)cc(C(F)(F)F)c3)c2C1c1cc(F)ccc1Cl` (stereo partly drawn) [Compound I-1343], the IC50 was at most 0.1 µM.

Consider `CS(=O)(=O)N1CC(Oc2cc(NC(=O)c3cc(F)cc(C(F)(F)F)c3)c3c(c2)C(=O)NC3c2cc(F)ccc2Cl)C1` (stereo not drawn) [Compound I-1346], for which the IC50 is at most 0.1 µM.

The molecule `Cn1nc(Nc2cc(Br)cc3c2C(c2cc(F)ccc2Cl)NC3=O)c2ccccc21` (stereo not drawn) [Compound I-1349] returned an IC50 of 10 to 100 µM.

Regarding `O=C(Nc1cc(Br)cc2c1C(c1cc(F)ccc1Cl)NC2=O)c1cc(F)cc(CC2CCC2)c1` (stereo not drawn) [Compound I-1350], the IC50 was in the range of 1 to 10 µM.

The molecule `O=C(Nc1cc(Br)cc2c1C(c1cc(F)ccc1Cl)NC2=O)c1cc(F)cc(C2CCC2)c1` (stereo not drawn) [Compound I-1351] had a 50% inhibitory concentration (IC50) of 1 to 10 µM.

`O=C1NC(c2cc(F)ccc2Cl)c2c(NS(=O)(=O)c3cc(F)cc(C(F)(F)F)c3)cc(Br)cc21` (stereo not drawn) [Compound I-1352]: the IC50 lay within 10 to 100 µM.

For the molecule `O=C(Nc1cc(F)cc(C(F)(F)F)c1)c1cccc2c1C(c1cc(F)ccc1Cl)NC2=O` (stereo not drawn) [Compound I-1353], the IC50 was 1 to 10 µM.

In turn, `O=C(Nc1cc(N2CCn3cnnc3C2)cc2c1C(c1cc(F)ccc1Cl)NC2=O)c1cc(F)cc(C(F)(F)F)c1` (stereo not drawn) [Compound I-1354] yielded an IC50 of at most 0.1 µM.

On to `O=C(Nc1cc(-c2cn3cccnc3n2)cc2c1C(c1cc(F)ccc1Cl)NC2=O)c1cc(F)cc(C(F)(F)F)c1` (stereo not drawn) [Compound I-1355], for which the IC50 was at most 0.1 µM.

On to `O=C(Nc1cc(NC(=O)c2cc(F)cc(C(F)(F)F)c2)c2c(c1)C(=O)NC2c1cc(F)ccc1Cl)c1cccnc1` (stereo not drawn) [Compound I-1356], for which the IC50 was at most 0.1 µM.

In the case of `O=C(Nc1cc(OCC2(CO)COC2)cc2c1C(c1cc(F)ccc1Cl)NC2=O)c1cc(F)cc(C(F)(F)F)c1` (stereo not drawn) [Compound I-1357], the IC50 is at most 0.1 µM.

`O=C1NCC(c2cc(NC(=O)c3cc(F)cc(C(F)(F)F)c3)c3c(c2)C(=O)NC3c2cc(F)ccc2Cl)O1` (stereo not drawn) [Compound I-1359]: the half-inhibitory concentration (IC50) was at most 0.1 µM.

`O=C1CC(c2cc(NC(=O)c3cc(F)cc(C(F)(F)F)c3)c3c(c2)C(=O)NC3c2cc(F)ccc2Cl)CN1` (stereo not drawn) [Compound I-1360] came in with a half-inhibitory concentration (IC50) of at most 0.1 µM.

Molecule `O=C(Nc1cc(C2COCCO2)cc2c1C(c1cc(F)ccc1Cl)NC2=O)c1cc(F)cc(C(F)(F)F)c1` (stereo not drawn) [Compound I-1361] gave an IC50 of 0.1 to 0.5 µM.

As to `O=C1NC(c2cc(F)ccc2Cl)c2c(NC(=O)C3CC4(CCC4)C3)cc(Br)cc21` (stereo not drawn) [Compound I-1362], the IC50 lay within 1 to 10 µM.

With `O=C1NC(c2cc(F)ccc2Cl)c2c(NC(=O)C34CC5CC(CC(O)(C5)C3)C4)cc(Br)cc21` (stereo not drawn) [Compound I-1363], the IC50 lay within 1 to 10 µM.

As for `O=C(Nc1cc(CS(=O)(=O)N2CCOCC2)cc2c1C(c1cc(F)ccc1Cl)NC2=O)c1cc(F)cc(C(F)(F)F)c1` (stereo not drawn) [Compound I-1364], the half-maximal inhibitory concentration (IC50) is at most 0.1 µM.

`CNS(=O)(=O)Cc1cc(NC(=O)c2cc(F)cc(C(F)(F)F)c2)c2c(c1)C(=O)NC2c1cc(F)ccc1Cl` (stereo not drawn) [Compound I-1365] showed an IC50 of at most 0.1 µM.

Take `NS(=O)(=O)Cc1cc(NC(=O)c2cc(F)cc(C(F)(F)F)c2)c2c(c1)C(=O)NC2c1cc(F)ccc1Cl` (stereo not drawn) [Compound I-1367]: the IC50 is at most 0.1 µM.

The molecule `Nc1nc2ccc(-c3cc(NC(=O)c4cc(F)cc(C(F)(F)F)c4)c4c(c3)C(=O)NC4c3cc(F)ccc3Cl)cn2n1` (stereo not drawn) [Compound I-1368] yielded an IC50 of at most 0.1 µM.

With `Cc1ncc(C#N)c(-c2cc(NC(=O)c3cc(F)cc(C(F)(F)F)c3)c3c(c2)C(=O)NC3c2cc(F)ccc2Cl)n1` (stereo not drawn) [Compound I-1369], the IC50 is at most 0.1 µM.

Turning to `Nc1nc2cc(-c3cc(NC(=O)c4cc(F)cc(C(F)(F)F)c4)c4c(c3)C(=O)NC4c3cc(F)ccc3Cl)ccn2n1` (stereo not drawn) [Compound I-1370], the IC50 is at most 0.1 µM.

Molecule `O=C(Nc1cc(-c2ccn3ncnc3c2)cc2c1C(c1cc(F)ccc1Cl)NC2=O)c1cc(F)cc(C(F)(F)F)c1` (stereo not drawn) [Compound I-1371] displayed an IC50 of at most 0.1 µM.

Molecule `O=C(Nc1cc(-c2ccn3ccnc3c2)cc2c1C(c1cc(F)ccc1Cl)NC2=O)c1cc(F)cc(C(F)(F)F)c1` (stereo not drawn) [Compound I-1372] registered an IC50 of at most 0.1 µM.

Take `Nc1nnc2ccc(-c3cc(NC(=O)c4cc(F)cc(C(F)(F)F)c4)c4c(c3)C(=O)NC4c3cc(F)ccc3Cl)cn12` (stereo not drawn) [Compound I-1373]: the IC50 was at most 0.1 µM.

As to `O=C(Nc1cc(-c2ccc3nnnn3c2)cc2c1C(c1cc(F)ccc1Cl)NC2=O)c1cc(F)cc(C(F)(F)F)c1` (stereo not drawn) [Compound I-1374], the IC50 is at most 0.1 µM.

Molecule `O=C(Nc1cc(CC(O)CO)cc2c1C(c1cc(F)ccc1Cl)NC2=O)c1cc(F)cc(C(F)(F)F)c1` (stereo not drawn) [Compound I-1376] yielded an IC50 of at most 0.1 µM.

As for `O=C1NC(c2cc(F)ccc2Cl)c2c(Nc3cc(CO)c(C(F)(F)F)cn3)cccc21` (stereo not drawn) [Compound I-1377], the IC50 lay in the range of 10 to 100 µM.

As for `Cn1nccc1C(=O)c1cc(NC(=O)c2cc(F)cc(C(F)(F)F)c2)c2c(c1)C(=O)NC2c1cc(F)ccc1Cl` (stereo not drawn) [Compound I-1380], the half-inhibitory concentration (IC50) was at most 0.1 µM.

For `O=C(Nc1cc(Br)cc2c1C(c1cc(F)ccc1Cl)NC2=O)c1cc(F)cc2c1NC(=O)C2(F)F` (stereo not drawn) [Compound I-1381], the IC50 was 0.1 to 0.5 µM.

In the case of `CN(Cc1cccc(O)c1)C(=O)Nc1cc(Br)cc2c1C(c1cc(F)ccc1Cl)NC2=O` (stereo not drawn) [Compound I-1382], the IC50 was 10 to 100 µM.

In turn, `O=C1NC(c2cc(F)ccc2Cl)c2c(NC(=O)N3CC4(CCC4)c4ccccc43)cc(Br)cc21` (stereo not drawn) [Compound I-1383] gave an IC50 of 0.1 to 0.5 µM.

For the molecule `O=C(Nc1cc(Br)cc2c1C(c1cc(F)ccc1Cl)NC2=O)c1cc(Cl)c(Cl)s1` (stereo not drawn) [Compound I-1384], the IC50 was 0.5 to 1 µM.

In the case of `O=C(Nc1cc(Br)cc2c1C(c1cc(F)ccc1Cl)NC2=O)c1cc(F)cc2c1NCCC2` (stereo not drawn) [Compound I-1385], the IC50 lay within 0.5 to 1 µM.

`O=C(Nc1cc(Br)cc2c1C(c1cc(F)ccc1Cl)NC2=O)c1cccc(SC(F)F)c1` (stereo not drawn) [Compound I-1386]: the IC50 was in the range of 1 to 10 µM.

`CC(=O)N1CCC12CN(c1cc(NC(=O)c3cc(F)cc(C(F)(F)F)c3)c3c(c1)C(=O)NC3c1cc(F)ccc1Cl)C2` (stereo not drawn) [Compound I-1387] gave an IC50 of 0.1 to 0.5 µM.

In the case of `O=C(Nc1cc(N2CC3(CCN3)C2)cc2c1C(c1cc(F)ccc1Cl)NC2=O)c1cc(F)cc(C(F)(F)F)c1` (stereo not drawn) [Compound I-1388], the IC50 lay in the range of 0.1 to 0.5 µM.

The molecule `Cn1nccc1C(O)c1cc(NC(=O)c2cc(F)cc(C(F)(F)F)c2)c2c(c1)C(=O)NC2c1cc(F)ccc1Cl` (stereo not drawn) [Compound I-1389] showed an IC50 of at most 0.1 µM.

For `O=C(O)COc1ncc(-c2cc(NC(=O)c3cc(F)cc(C(F)(F)F)c3)c3c(c2)C(=O)NC3c2cc(F)ccc2Cl)cn1` (stereo not drawn) [Compound I-1390], the half-maximal inhibitory concentration (IC50) was at most 0.1 µM.

Take `N#CCCn1cc(-c2cc(NC(=O)c3cc(F)cc(C(F)(F)F)c3)c3c(c2)C(=O)NC3c2cc(F)ccc2Cl)cn1` (stereo not drawn) [Compound I-1397]: the IC50 was at most 0.1 µM.

Consider `CS(=O)(=O)CCn1cc(-c2cc(NC(=O)c3cc(F)cc(C(F)(F)F)c3)c3c(c2)C(=O)NC3c2cc(F)ccc2Cl)cn1` (stereo not drawn) [Compound I-1398], for which the IC50 is at most 0.1 µM.

On to `O=C(Nc1cc(CS(=O)(=O)N2CCC2)cc2c1C(c1cc(F)ccc1Cl)NC2=O)c1cc(F)cc(C(F)(F)F)c1` (stereo not drawn) [Compound I-1399], for which the IC50 was at most 0.1 µM.

In turn, `O=C(Nc1cc(CN2CCn3ncnc3C2)cc2c1C(c1cc(F)ccc1Cl)NC2=O)c1cc(F)cc(C(F)(F)F)c1` (stereo not drawn) [Compound I-1400] returned a concentration for half-maximal inhibition (IC50) of at most 0.1 µM.
